Structures can show the parent of a compound that is named as a salt.
System: HSV-1
Experiment: HSV-1 infection of Vero 76 cells, viral DNA detected by hybridization capture (chemiluminescence)
Format: cell-based
Conditions: Human alphaherpesvirus 1; HSV-1 in Vero 76 cells, MOI=0.001, compounds incubated 40–48 hours at 37° C.; read-out: IC50
Excerpt: In the following example, “MEM” means Minimal Essential Media; “FBS” means Fetal Bovine Serum; “NP40” and “Igepal” are detergents; “MOI” means Multiplicity of Infection; “NaOH” means sodium hydroxide; “MgCl2” means magnesium chloride; “dATP” means deoxyadenosine 5′ triphosphate; “dUTP” means deoxyuridine 5′ triphosphate; “dCTP” means dexoxycytidine 5′ triphosphate; “dGTP” means deoxyguanosine 5′ triphosphate; “GuSCN” means Guanidinium thiocyanate; “EDTA” means ethylenediamine tetraacetic acid; “TE” means Tris-EDTA; “SCC” means sodium chloride/sodium citrate; “APE” means a solution of ammonia acetate, ammonia phosphate, EDTA; “PBS” means phosphate buffered saline; and “HRP” means horseradish peroxidase.
Vero 76 cells were maintained in MEM with Earle's salts, L-glutamine, 8% FBS (Hyclone, A-1111-L) and 100 units/mL Penicillin-100 μg/mL Streptomycin. For assay conditions, FBS was reduced to 2%. Cells are seeded into 96-well tissue culture plates at a density of 5×10^4 cells/well after being incubated for 45 min at 37° C. in the presence of HSV-1 or HSV-2 (MOI=0.001). Test compounds are added to the wells and the plates are incubated at 37° C. for 40–48 hours. Cell lysates are prepared as follows: media was removed and replaced with 150 μL/well 0.2 N NaOH with 1% Igepal CA 630 or NP-40. Plates were incubated up to 14 days at room temperature in a humidified chamber to prevent evaporation.
For the detection probe, a gel-purified, digoxigenin-labeled, 710-bp PCR fragment of the HSV UL-15 sequence was utilized. PCR conditions included 0.5 μM primers, 180 μM dTTP, 20 μM dUTP-digoxigenin (Boehringer Mannheim 1558706), 200 μM each of dATP, dCTP, and dGTP, 1×PCR Buffer II (Perkin Elmer), 2.5 mM MgCl2, 0.025 units/μL of AmpliTaq Gold polymerase (Perkin Elmer), and 5 ng of gel-purified HSV DNA per 100 μL Extension conditions were 10 min at 95° C., followed by 30 cycles of 95° C. for 1 min, 55° C. for 30 sec, and 72° C. for 2 min. The amplification was completed with a 10-min incubation at 72° C. Primers were selected to amplify a 728 bp probe spanning a section of the HSV1 UL15 open reading frame (nucleotides 249–977). Single-stranded transcripts were purified with Promega M13 Wizard kits. The final product was mixed 1:1 with a mixture of 6 M GuSCN, 100 mM EDTA and 200 μg/mL herring sperm DNA and stored at 4° C.
The capture DNA plasmid (HSV UL13 region in pUC) was linearized by cutting with Xba I, denatured for 15 min at 95° C. and diluted immediately into Reacti-Bind DNA Coating Solution (Pierce, 17250, diluted 1:1 with TE buffer, pH 8) at 1 ng/μL 75 μL/well were added to Corning (#3922 or 9690) white 96-well plates and incubated at room temperature for at least 4 hrs before washing twice with 300 μL/well 0.2×SSC/0.05% Tween-20 (SSC/T buffer). The plates were then incubated overnight at room temperature with 150 μL/well 0.2 N NaOH, 1% IGEPAL and 10 μg/mL herring sperm DNA.
Twenty-seven (27) μL of cell lysate was combined with 45 μL of hybridization solution (final concentration: 3M GuSCN, 50 mM EDTA, 100 μg/ml salmon sperm DNA, 5×Denhardt's solution, 0.25×APE, and 5 ng of the digoxigenin-labeled detection probe). APE is 1.5 M NH4-acetate, 0.15 M NH4H2 phosphate, and 5 mM EDTA adjusted to pH 6.0. Mineral oil (50 μL) was added to prevent evaporation. The hybridization plates were incubated at 95° C. for 10 minutes to denature the DNA, then incubated at 42° C. overnight. The wells were washed 6× with 300 μL/well SSC/T buffer then incubated with 75 μL/well anti-digoxigenin-HRP-conjugated antibody (Boehringer Mannheim 1207733, 1:5000 in TE) for 30 min at room temperature. The wells were washed 6× with 300 μL/well with PBS/0.05% Tween-20 before 75 μL/well SuperSignal LBA substrate (Pierce) was added. The plates were incubated at room temperature for 30 minutes and chemiluminescence was measured in a Wallac Victor reader.
The following results were obtained for HSV-1.

SMILES | IC50
COc1ccc(-c2nn3c(NCCN4CCOCC4)cccc3c2-c2ccnc(NC3CC3)n2)cc1 [Example 65, 3-[2-(Cyclopropylamino)-4-pyrimidinyl]-2-(4-methoxyphenyl)-N-[2-(4-morpholinyl)ethyl]pyrazolo[1,5-a]pyridin-7-amine] | 500 nM
CCCCNc1nccc(-c2c(-c3ccc(Nc4ccccc4)cc3)nn3c(NCCCC)cccc23)n1 [Example 19, 2-(4-Anilinophenyl)-N-butyl-3-[2-(butylamino)-4-pyrimidinyl]pyrazolo[1,5-a]pyridin-7-amine] | 500 nM
Nc1cccc(-c2nn3c(N4CCCC4)cccc3c2-c2ccnc(NC3CCCC3)n2)c1 [Example 37, 4-[2-(3-Aminophenyl)-7-(1-pyrrolidinyl)pyrazolo[1,5-a]pyridin-3-yl]-N-cylopentyl-2-pyrimidinamine] | 3000 nM
CCCCNc1nccc(-c2c(-c3ccc(NCC4CC4)cc3)nn3c(NCCCC)cccc23)n1 [Example 22, N-butyl-3-[2-(butylamino)-4-pyrimidinyl]-2-{4-[(cyclopropylmethyl)amino]phenyl}pyrazolo[1,5-a]pyridin-7-amine] | 600 nM
COc1ccc(-c2nn3c(N4CCCC4)cccc3c2-c2ccnc(N)n2)cc1 [Example 3, 4-[2-(4-Methoxyphenyl)-7-(1-pyrrolidinyl)pyrazolo[1,5-a]pyridin-3-yl]-2-pyrimidinamine] | 5000 nM
CCCCOc1ccc(-c2nn3c(NC4CCCC4)cccc3c2-c2ccnc(NC3CCCC3)n2)cc1 [Example 9, 2-(4-Butoxyphenyl)-N-cyclopentyl-3-[2-(cyclopentylamino)-4-pyrimidinyl]-pyrazolo[1,5-a]pyridin-7-amine] | 3000 nM
CCCCNc1nccc(-c2c(-c3ccc(Nc4ccccc4)cc3)nn3c(N(CCCC)c4ccccc4)cccc23)n1 [Example 20, 2-(4-Anilinophenyl)-N-butyl-3-[2-(butylamino)-4-pyrimidinyl]-N-phenylpyrazolo[1,5-a]pyridin-7-amine] | 16000 nM
Fc1cccc(-c2nn3c(N4CCOCC4)cccc3c2-c2ccnc(NC3CCCC3)n2)c1 [Example 97, N-Cyclopentyl-4-[2-(3-fluorophenyl)-7-(4-morpholinyl)pyrazolo[1,5-a]pyridin-3-yl]-2-pyrimidinamine] | 700 nM
CCCCNc1nccc(-c2c(-c3ccc(N)cc3)nn3c(NCCCC)cccc23)n1 [Example 16, N-{4-[2-(4-Aminophenyl)-7-(butylamino)pyrazolo[1,5-a]pyridin-3-yl]-2-pyrimidinyl}-N-butylamine] | 1000 nM
COc1ccc(-c2nn3c(NCCCCNC(=O)CCCC[C@@H]4SC[C@@H]5NC(=O)N[C@@H]54)cccc3c2-c2ccnc(NC3CCCC3)n2)cc1 [Example 82, 5-[(3aS,4S,6aR)-2-Oxohexahydro-1H-thieno[3,4-d]imidazol-4-yl]-N-(4-{[3-[2-(cyclopentylamino)pyrimidin-4-yl]-2-(4-methoxyphenyl)pyrazolo[1,5-a]pyridin-7-yl]amino}butyl)pentanamide] | 400 nM

Further lines, results first:

IC50 | SMILES
300 nM | COc1ccc(-c2nn3c(NCCCCOP(=O)(O)O)cccc3c2-c2ccnc(NC3CCCC3)n2)cc1 [Example 92, 4-{[3-[2-(Cyclopentylamino)pyrimidin-4-yl]-2-(4-methoxy-phenyl)pyrazolo[1,5-a]pyridin-7-yl]amino}butyl phosphate diammonium salt]
500 nM | Cc1cccc(-c2nn3c(NC(C)C)cccc3c2-c2ccnc(NC3CCCC3)n2)c1 [Example 49, 3-[2-(Cyclopentylamino)-4-pyrimidinyl]-N-isopropyl-2-(3-methylphenyl)pyrazolo[1,5-a]pyridin-7-amine]
1200 nM | Oc1ccc(-c2nn3c(NC4CCCC4)cccc3c2-c2ccnc(NC3CC3)n2)cc1 [Example 68, 4-{7-(Cyclopentylamino)-3-[2-(cyclopropylamino)-4-pyrimidinyl]-pyrazolo[1,5-a]pyridin-2-yl}phenol]
1100 nM | COc1ccc(-c2nn3c(NCCN)cccc3c2-c2ccnc(NC3CCCC3)n2)cc1 [Example 96, N′-[3-[2-(Cyclopentylamino)-4-pyrimidinyl]-2-(4-methoxyphenyl)pyrazolo[1,5-a]pyridin-7-yl]-1,2-ethanediamine]
1800 nM | Nc1cc(-c2nn3c(NC4CCCC4)cccc3c2-c2ccnc(NC3CCCC3)n2)ccc1Cl [Example 44, 2-(3-Amino-4-chlorophenyl)-N-cyclopentyl-3-[2-(cyclopentylamino)-4-pyrimidinyl]pyrazolo[1,5-a]pyridin-7-amine]
9000 nM | COc1ccc(-c2nn3c(NCCCCNC(=O)CCC(=O)O)cccc3c2-c2ccnc(NC3CCCC3)n2)cc1 [Example 88, 4-[(4-{[3-[2-(Cyclopentylamino)pyrimidin-4-yl]-2-(4-methoxyphenyl)pyrazolo[1,5-a]pyridin-7-yl]amino}butyl)amino]-4-oxobutanoic acid]
2500 nM | NC(=O)c1cccc(-c2nn3c(NC4CCCC4)cccc3c2-c2ccnc(NC3CCCC3)n2)c1 [Example 40, 3-{7-(Cyclopentylamino)-3-[2-(cyclopentylamino)-4-pyrimidinyl]-pyrazolo[1,5-a]pyridin-2-yl}benzamide]
2000 nM | c1cc(-c2ccncc2)cc(-c2nn3c(NC4CCCC4)cccc3c2-c2ccnc(NC3CCCC3)n2)c1 [Example 31, N-Cyclopentyl-3-[2-(cyclopentylamino)-4-pyrimidinyl]-2-[3-(4-pyridinyl)phenyl]pyrazolo[1,5-a]pyridin-7-amine]
600 nM | c1cc(-c2ccsc2)cc(-c2nn3c(NC4CCCC4)cccc3c2-c2ccnc(NC3CCCC3)n2)c1 [Example 32, N-Cyclopentyl-3-[2-(cyclopentylamino)-4-pyrimidinyl]-2-[3-(3-thienyl)phenyl]pyrazolo[1,5-a]pyridin-7-amine]
200 nM | Fc1cccc(-c2nn3c(NC4CCCC4)cccc3c2-c2ccnc(NC3CCCC3)n2)c1 [Example 56, N-Cyclopentyl-3-[2-(cyclopentylamino)-4-pyrimidinyl]-2-(3-fluorophenyl)pyrazolo[1,5-a]pyridin-7-amine]
3000 nM | CCOC(=O)COc1ccc(-c2nn3c(NC4CCCC4)cccc3c2-c2ccnc(NC3CCCC3)n2)cc1 [Example 8, Ethyl (4-{7-(cyclopentylamino)-3-[2-(cyclopentylamino)-4-pyrimidinyl]-pyrazolo[1,5-a]pyridin-2-yl}phenoxy)acetate]
6200 nM | COc1ccc(-c2nn3c(NCC(=O)N4CCCC4)cccc3c2-c2ccnc(NC3CCCC3)n2)cc1 [Example 94, 3-[2-(Cyclopentylamino)-4-pyrimidinyl]-2-(4-methoxyphenyl)-N-[2-oxo-2-(1-pyrrolidinyl)ethyl]pyrazolo[1,5-a]pyridin-7-amine]
650 nM | Oc1cccc(-c2nn3c(NC4CCCC4)cccc3c2-c2ccnc(NC3CCCC3)n2)c1 [Example 54, 3-{7-(Cyclopentylamino)-3-[2-(cyclopentylamino)-4-pyrimidinyl]pyrazolo[1,5-a]pyridin-2-yl}phenol]
200 nM | COc1ccc(-c2nn3c(NCCCCO)cccc3c2-c2ccnc(NC3CCCC3)n2)cc1 [Example 90, 4-{[3-[2-(Cyclopentylamino)pyrimidin-4-yl]-2-(4-methoxyphenyl)-pyrazolo[1,5-a]pyridin-7-yl]amino}butan-1-ol]
